The results in this text go back to PMC4786809, “Determination of cyanidin 3-glucoside in rat brain, liver and kidneys by UPLC/MS-MS and its application to a short-term pharmacokinetic study” (Scientific Reports, 2016).

This series can be described thus: Urinary excretion after intravenous C3G. In kind it is in vivo, Wistar rats. The text has this:
Twenty-two male Wistar rats (Rattus Norvegicus, Harlan Italy S.r.l.), of same age (15 weeks), 293–390 g of body weight, were used. The rats were randomly divided into 5 groups, according to the time that elapsed after intravenous administration of the test compound, and one control group. Each time point was represented by four biological replicates. All animals were allowed to acclimate to the animal facility of the University of Trieste for at least 2 week before studies were initiated. The experimental design was vetted and approved by the bioethical committee of the University of Trieste (internal code 140PAS14), according to the provisions of the European Community Council Directive 2010/63/EU[39]. The methods were carried out in accordance with the approved guidelines. The animals (n = 22) were maintained in cages in a room at 23 ± 2 °C, 50–60% humidity with a 12-hour light-dark cycle. The night before the experiment, food was withdrawn from the cages but water was given ad libitum. On the day of the experiment, the rats were anesthetized with intra-peritoneal administration of tiletamine/zolazepam (1:1, 25 mg/kg body weight) and xylazine (10 mg/kg body weight). During anaesthesia (10 min in all cases), the heart and ventilation rate were monitored. The rats were placed on their backs, with the ventral side up and with the legs spread separately on a thermo-isolated support. The penis was extruded by sliding the prepuce downwards. The dorsal penis vein was then seen along both sides of the penis and exactly 10 min after anaesthesia 0.2 mL PBS without (control group) or with (treated group) 668 nmol cyanidin 3-glucoside (C3G) in PBS was injected using a 24-G hypodermic needle. Then the injection site was pressed with a swab for a few seconds, and the glans was encouraged to retract to prevent further bleeding. One min before sacrificing the rats, sodium heparin (0.1 ml, 500 IU) was injected again into the dorsal penis vein, exposed in the same way. […] Blood draining and excision of the organs were carried out according to the literature. In detail, blood was collected from the neck of rats hold upside down, immediately after their decapitation, which happened at the time points sharp. Exsanguination took 5 seconds; laparotomy and excision of the liver and the kidneys took 5 more seconds. The post-decapitation procedures were standardised. Urine was collected through the urinary bladder with a syringe before decapitation. Kidneys, liver and brain were washed with mQ water, immediately frozen in liquid nitrogen and stored at −80 °C.
Immediately after sampling, 5 mL of blood were transferred into ice-cold (−20 °C), deoxygenated aqueous 95% methanol in a ratio 1:9 (v/v). The urine was weighted and transferred into ice-cold, deoxygenated aqueous 95% methanol at a ratio of 1:9 (w/v). Frozen kidneys, liver and brain were grounded under cryogenic conditions (−196 °C) to 5 μm particles in a CryoMill (Retsch, Germany), using a single 25 mm i. d. steel ball (30 seconds, 25/sec frequency). The pulverized tissue was rapidly transferred (without thawing) into ice-cold, deoxygenated aqueous 95% methanol at a ratio of 1:9 (w/v). Cinnamic acid-d5, as internal standard, was dissolved in the aqueous methanol at concentration of 0.1 mg/L for the monitoring of the extraction protocol in biofluids and tissues.
All samples were extracted with an orbital shaker for 10 min at room temperature. The methanol extracts were then centrifuged for 5 min at 3600 rpm at 4 °C, decanted under a stream of nitrogen in 50 mL dark glass vessels and stored at −80 °C. Clean-up of extracted samples in methanol was performed by solid phase extraction (SPE), as previously described. Briefly, 5 mL of extracted samples were evaporated on a rotary evaporator and reconstituted in 10 mL of acidified water. Anthocyanins were extracted by solid-phase adsorption onto a hydrophobic matrix (Sep-Pak C18, 0.35 g, Waters, Milford, MA). […]

In the case of `OC[C@H]1O[C@@H](Oc2cc3c(O)cc(O)cc3[o+]c2-c2ccc(O)c(O)c2)[C@H](O)[C@@H](O)[C@@H]1O` [C3G, Cyanidin-3-O-β-glucoside], the Urine concentration runs as follows: (0.25 min after i.v. 668 nmol C3G) 0.02 ± 0.01 nmol/g; (2 min after i.v. 668 nmol C3G) 2.69 ± 0.82 nmol/g; (5 min after i.v. 668 nmol C3G) 20.20 ± 2.61 nmol/g; (15 min after i.v. 668 nmol C3G) 11.95 ± 6.53 nmol/g; (20 min after i.v. 668 nmol C3G) 5.66 ± 1.31 nmol/g. The “Injected dose recovered in urine” value (5 min after the injection) is 15%.
